Results taken from patent US10106834B2, “Methods of diagnosing and treating B cell acute lymphoblastic leukemia” (The General Hospital Corporation, priority 2013, dated 2018).

System: integrin α4β1 (VLA-4) on WT and IkE5Δ/Δ pre-B cells
Experiment: Adhesion of adherent pre-B cells to fibronectin-coated plates with peptide blocking
Assay type: cell-based, mouse
Details: 400 μg/ml peptide
Experimental: Adhesion to Integrin Ligands and In Vitro FAK Inhibition Assay. Adhesion assay were performed in non-TC treated plates (BD). The plates were coated with 10 ug/ml fibronectin (FN), collagen (Col.) (Invitrogen) or BSA alone overnight at 4° C. After blocking the plates with 2% BSA for 1 h, equal number of cells were plated and incubated for the indicated time points. At the end of the assay, unbound and bound cells were harvested and enumerated. Percent adhesion was calculated by taking ratio of bound cells over total cells used in each assay.
For peptide mediated blocking of adhesion^55, equal number of cells were pretreated for 45 minutes with either 400 μg/ml G-R-G-D-S-P (SEQ ID NO:1) or the control peptide G-R-G-E-S (SEQ ID NO:2) (American Peptide Company) and plated on FN-coated TC dishes. Cells were enumerated for calculation of percent adhesion and percent inhibition.

G-R-G-D-S-P [RGD]
binding of pre-B cells to fibronectin: significantly inhibited
